The source of these data is ChEMBL document CHEMBL4411303, “Synthesis of tetrazole derivatives bearing pyrrolidine scaffold and evaluation of their antifungal activity against Candida albicans” (Eur J Med Chem, 2019).

Converted amounts (≈) assume the structure as drawn. The source made the active and inactive calls.

The test system of series [1] is Candida albicans. The experiment in a line: Antifungal activity against Candida albicans ATCC 90028 assessed as planktonic growth inhibition at 0.09 uM after 48 hrs by M27-A3 protocol based method relative to control. Format: functional. Conditions: ATCC 90028, 48 h, read-out: GI.
Series [2] has as its system Candida albicans. The experiment in a line: Antifungal activity against Candida albicans ATCC 90028 assessed as planktonic growth inhibition at 0.2 uM after 48 hrs by M27-A3 protocol based method relative to control. In kind it is functional. The note with it: ATCC 90028, 48 h, read-out: GI.
Series [3] relates to Candida albicans. The experiment in a line: Antifungal activity against Candida albicans ATCC 90028 assessed as planktonic growth inhibition at 0.4 uM after 48 hrs by M27-A3 protocol based method relative to control. In kind it is functional. The note with it: ATCC 90028, 48 h, read-out: GI.
Series [4] deals with Candida albicans. Put plainly: Antifungal activity against Candida albicans ATCC 90028 assessed as planktonic growth inhibition at 0.7 uM after 48 hrs by M27-A3 protocol based method relative to control. Format: functional. The note with it: ATCC 90028, 48 h, read-out: GI.
The subject of series [5] is Candida albicans. Put plainly: Antifungal activity against Candida albicans ATCC 90028 assessed as planktonic growth inhibition at 1.5 uM after 48 hrs by M27-A3 protocol based method relative to control. Format: functional. The note with it: ATCC 90028, 48 h, read-out: GI.
Series [6] concerns Candida albicans. Put plainly: Antifungal activity against Candida albicans ATCC 90028 assessed as planktonic growth inhibition at 3 uM after 48 hrs by M27-A3 protocol based method relative to control. In kind it is functional. Conditions: ATCC 90028, 48 h, read-out: GI.
The subject of series [7] is Candida albicans. Put plainly: Antifungal activity against Candida albicans ATCC 90028 assessed as planktonic growth inhibition at 6 uM after 48 hrs by M27-A3 protocol based method relative to control. The note with it: ATCC 90028, 48 h, read-out: GI. In kind it is functional.
In series [8] the test system is Candida albicans. Put plainly: Antifungal activity against Candida albicans ATCC 90028 assessed as planktonic growth inhibition at 12 uM after 48 hrs by M27-A3 protocol based method relative to control. In kind it is functional. Conditions: ATCC 90028, 48 h, read-out: GI.
Series [9] has as its system Candida albicans. The experiment in a line: Antifungal activity against Candida albicans ATCC 90028 assessed as planktonic growth inhibition at 23.9 uM after 48 hrs by M27-A3 protocol based method relative to control. In kind it is functional. The note with it: ATCC 90028, 48 h, read-out: GI.
For series [10], the system named is Candida albicans. Put plainly: Antifungal activity against Candida albicans ATCC 90028 assessed as planktonic growth inhibition at 47.9 uM after 48 hrs by M27-A3 protocol based method relative to control. The note with it: ATCC 90028, 48 h, read-out: GI. In kind it is functional.
Series [11] relates to Candida albicans. The experiment in a line: Fungicidal activity against Candida albicans ATCC 90028 assessed as log reduction in fungal load incubated for 48 hrs followed by replating on sabouraud dextrose agar plate and measured after 48 hrs. In kind it is functional.
Series [12] concerns Vero. The experiment in a line: Cytotoxicity against African green monkey Vero cells assessed as reduction in cell viability at 383.2 uM after 18 hrs by XTT assay relative to control. Format: cell-based. The note with it: chlorocebus sabaeus. (In general: Tetrazolium dyes change colour on reduction, which living cells bring about.)
Series [13] is described as follows: Selectivity index, ratio of CC50 for African green monkey Vero cells to IC50 for Candida albicans ATCC 90028. In kind it is toxicity. The note with it: read-out: Ratio CC50/IC50.
Series [14] is described as follows: Toxicity in Galleria mellonella larvae assessed as survival rate at 47.9 uM measured after 18 hrs (reference value: 100%).
A short description of series [15]: Toxicity in Galleria mellonella larvae assessed as survival rate at 47.9 uM measured after 48 hrs (reference value: 100%).
Series [16] in a line: Toxicity in Galleria mellonella larvae assessed as survival rate at 47.9 uM measured after 120 hrs (reference value: 100%).
Series [17] is described as follows: Toxicity in Galleria mellonella larvae assessed as movement melanization at 47.9 uM measured after 18 hrs (reference value: 0%).
Series [18] is described as follows: Toxicity in Galleria mellonella larvae assessed as movement melanization at 47.9 uM measured after 48 hrs (reference value: 0%).
Series [19] in a line: Toxicity in Galleria mellonella larvae assessed as movement melanization at 47.9 uM measured after 128 hrs (reference value: 0%).
A short description of series [20]: Toxicity in Galleria mellonella larvae assessed as cocoon formation at 47.9 uM measured after 18 hrs (reference value: 60 +/- 20%).
The nature of series [21]: Toxicity in Galleria mellonella larvae assessed as cocoon formation at 47.9 uM measured after 48 hrs (reference value: 85 +/- 5%).
The nature of series [22]: Toxicity in Galleria mellonella larvae assessed as cocoon formation at 47.9 uM measured after 48 hrs (reference value: 100 +/- 0%).
Series [23] concerns Candida albicans. The experiment in a line: Antibiofilm activity against Candida albicans ATCC 90028 assessed as inhibition of biofilm formation […] after 24 hrs by XTT assay relative to control. Format: functional, organism-based. The note with it: ATCC 90028, 24 h.
For series [24], the system named is Candida albicans. Put plainly: Antifungal activity against Candida albicans ATCC 90028 assessed as reduction in cell growth after 48 to 72 hrs by M27-A3 protocol based method. In kind it is functional.
The subject of series [25] is Candida albicans. The experiment in a line: Antifungal activity against Candida albicans ATCC 90028 assessed as reduction in cell growth after 48 to 72 hrs in presence of ergosterol by M27-A3 protocol based method. In kind it is functional.
In series [26] the test system is Candida albicans. The experiment in a line: Inhibition of Candida albicans ATCC 90028 cell adhesion to human TR146 cells at reduction in cell adherence at 47.9 uM relative to control. Format: functional. Conditions: ATCC 90028, TR146.
Series [27] has as its system Candida albicans. The experiment in a line: Induction of reactive oxygen species generation in Candida albicans ATCC 90028 assessed as ROS level at 47.9 uM after 18 hrs by DCFDA probe based flow cytometry (reference value: 0.3%). Format: functional. (In flow cytometry, cells or beads pass a laser one at a time.)
For series [28], the system named is Candida albicans. Put plainly: Induction of Candida albicans ATCC 90028 internalization in mouse RAW264.7 cells assessed as reduction in fungus-induced cell damage by measuring live and early apoptotic cells at 47.9 uM after 2 hrs acridine orange/ethidium bromide staining based confocal scanning microscopic analysis. In kind it is functional, organism-based.

Series [29] has as its system Candida albicans. Put plainly: Antifungal activity against Candida albicans ATCC 90028 assessed as planktonic growth inhibition at 0.08 uM after 48 hrs by M27-A3 protocol based method relative to control. In kind it is functional. Conditions: ATCC 90028, 48 h, read-out: GI.
Series [30] has as its system Candida albicans. The experiment in a line: Antifungal activity against Candida albicans ATCC 90028 assessed as planktonic growth inhibition at 0.16 uM after 48 hrs by M27-A3 protocol based method relative to control. Format: functional. Conditions: ATCC 90028, 48 h, read-out: GI.
The test system of series [31] is Candida albicans. Put plainly: Antifungal activity against Candida albicans ATCC 90028 assessed as planktonic growth inhibition at 0.31 uM after 48 hrs by M27-A3 protocol based method relative to control. In kind it is functional. Conditions: ATCC 90028, 48 h, read-out: GI.
In series [32] the test system is Candida albicans. The experiment in a line: Antifungal activity against Candida albicans ATCC 90028 assessed as planktonic growth inhibition at 0.62 uM after 48 hrs by M27-A3 protocol based method relative to control. In kind it is functional. The note with it: ATCC 90028, 48 h, read-out: GI.
For series [33], the system named is Candida albicans. Put plainly: Antifungal activity against Candida albicans ATCC 90028 assessed as planktonic growth inhibition at 1.24 uM after 48 hrs by M27-A3 protocol based method relative to control. Format: functional. Conditions: ATCC 90028, 48 h, read-out: GI.
The subject of series [34] is Candida albicans. The experiment in a line: Antifungal activity against Candida albicans ATCC 90028 assessed as planktonic growth inhibition at 2.49 uM after 48 hrs by M27-A3 protocol based method relative to control. The note with it: ATCC 90028, 48 h, read-out: GI. Format: functional.
The test system of series [35] is Candida albicans. The experiment in a line: Antifungal activity against Candida albicans ATCC 90028 assessed as planktonic growth inhibition at 4.97 uM after 48 hrs by M27-A3 protocol based method relative to control. Format: functional. Conditions: ATCC 90028, 48 h, read-out: GI.
The subject of series [36] is Candida albicans. Put plainly: Antifungal activity against Candida albicans ATCC 90028 assessed as planktonic growth inhibition at 9.94 uM after 48 hrs by M27-A3 protocol based method relative to control. In kind it is functional. Conditions: ATCC 90028, 48 h, read-out: GI.
The subject of series [37] is Candida albicans. The experiment in a line: Antifungal activity against Candida albicans ATCC 90028 assessed as planktonic growth inhibition at 19.88 uM after 48 hrs by M27-A3 protocol based method relative to control. Format: functional. The note with it: ATCC 90028, 48 h, read-out: GI.
Series [38] has as its system Candida albicans. The experiment in a line: Antifungal activity against Candida albicans ATCC 90028 assessed as planktonic growth inhibition at 39.77 uM after 48 hrs by M27-A3 protocol based method relative to control. In kind it is functional. The note with it: ATCC 90028, 48 h, read-out: GI.
In series [39] the test system is Vero. The experiment in a line: Cytotoxicity against African green monkey Vero cells assessed as reduction in cell viability at 318.16 uM after 18 hrs by XTT assay relative to control. In kind it is cell-based. Conditions: chlorocebus sabaeus.
Series [40] concerns Candida albicans. The experiment in a line: Induction of Candida albicans ATCC 90028 internalization in mouse RAW264.7 cells assessed as reduction in fungus-induced cell damage by measuring live and early apoptotic cells at 39.77 uM after 2 hrs acridine orange/ethidium bromide staining based confocal scanning microscopic analysis. In kind it is functional, organism-based.

Broadly, the IC50 is the point on the concentration scale where inhibition reaches its midpoint. The term MIC denotes the smallest concentration in the dilution series that meets the test's criterion for growth inhibition. What is called inhibition is the percentage by which the read-out fell short of the control.

Consider `c1ccc(-c2nnn(CCCN3CCCC3c3ccccc3)n2)cc1` (stereo not drawn), for which, in [1], the inhibition of growth at 0.09 µM worked out at 99.2%. Further, in series [2], the inhibition of growth at 0.2 µM came to 99.3%. Also, the inhibition of growth at 0.4 µM in [3] came to 99.3%. In addition, the inhibition of growth at 0.7 µM in series [4] was 99.2%. In series [5], the inhibition of growth at 1.5 µM is 99.3%. The inhibition of growth at 3 µM in series [6] was determined as 99.3%. Moreover, the inhibition of growth at 6 µM in series [7] is 99.3%. In addition, in series [8], the inhibition of growth at 12 µM stood at 99.4%. In series [9], the inhibition of growth at 23.9 µM was found to be 99.3%. Moreover, the inhibition of growth at 47.9 µM in [10] amounted to 99.2%. Further, in series [11], the “log(activity)” value is given as -0.4. The Activity is recorded as 100% in [12]; 0% in [17]; 0% in series [18]; 0% in [19]; 67% in series [20]; 77% in series [21]. Besides, the Activity in [22] was 93%; in series [27], 12 - 16%. In addition, the selectivity ratio in series [13] stood at 2. Moreover, the survival at 18 h, 47.9 µM in [14] came to 100%. The survival at 48 h, 47.9 µM in series [15] was 100%. Moreover, the survival at 120 h, 47.9 µM in [16] turned out to be 97%. Besides, in [23], the IC50 turned out to be 23.9 µM. The MIC in [24] stood at 11.9 µM (≈ 3.97 µg/mL); in series [25], 23.9 µM. Besides, the inhibition at 47.9 µM in series [26] is > 95%. Besides, the outcome in series [28] was Active.
Regarding `Clc1ccc(-c2nnn(CCCN3CCCC3c3ccc(Cl)cc3)n2)cc1` (stereo not drawn), in series [29], the inhibition of growth at 0.08 µM amounted to 99.6%. Moreover, the inhibition of growth at 0.16 µM in series [30] came to 99.5%. In addition, the inhibition of growth at 0.31 µM in series [31] came to 99.2%. The inhibition of growth at 0.62 µM in series [32] was 99.5%. In addition, in series [33], the inhibition of growth at 1.24 µM was found to be 99%. Besides, the inhibition of growth at 2.49 µM in series [34] was found to be 99.7%. The inhibition of growth at 4.97 µM in [35] is 99.3%. Further, in series [36], the inhibition of growth at 9.94 µM came to 99.3%. Further, the inhibition of growth at 19.88 µM in [37] was 99.3%. Also, the inhibition of growth at 39.77 µM in series [38] worked out at 99.6%. Moreover, in series [11], the “log(activity)” value is -1.4. In addition, in series [39], the Activity was 100%. Besides, the selectivity ratio in series [13] amounted to 2. In series [23], the IC50 is 79.5 µM. In series [40], the result was Active.
